# Reference: the supplement of paper PMC10307832
# Assays:
# Assay in all cases: relative viability (nuclei count vs DMSO), 5 days (fraction); higher = more cells survive
# [1] = compound: Cc1ccc(F)c(NC(=O)Nc2ccc(-c3cccc4[nH]nc(N)c34)cc2)c1 [Linifanib] + O=C(c1cc(Cc2n[nH]c(=O)c3ccccc23)ccc1F)N1CCN(C(=O)C2CC2)CC1 [Olaparib] (partner 8 µM)
# How it was run: (§1)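 Nuclei were stained with Hoechst during a one-step fixation (final 0.05% Triton X-100, 1% formaldehyde, 1 ug/ml Hoechst) carried out 5 days after dosing, then counted on 4× images. The cells, lung cancer lines in 1536-well plates, had been dosed by pin tool the day after seeding with one drug alone or a fixed anchor-drug dose plus five library-drug doses (not always all listed) in √10 steps. Relative viability is the nuclei count in treated wells divided by that in vehicle wells, and each value is the median of duplicate plates.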
# [2] = compound: Cc1ccc(F)c(NC(=O)Nc2ccc(-c3cccc4[nH]nc(N)c34)cc2)c1 [Linifanib] + NC(=O)Nc1cc(-c2cccc(F)c2)sc1C(=O)N[C@H]1CCCNC1 [AZD7762] (partner 0.2 µM)
# How it was run: as §1
# [3] = compound: Cc1ccc(F)c(NC(=O)Nc2ccc(-c3cccc4[nH]nc(N)c34)cc2)c1 [Linifanib] + Cc1nc(Nc2ncc(C(=O)Nc3c(C)cccc3Cl)s2)cc(N2CCN(CCO)CC2)n1 [Dasatinib] (partner 0.075 µM)
# How it was run: as §1
# [4] = compound: Cc1ccc(F)c(NC(=O)Nc2ccc(-c3cccc4[nH]nc(N)c34)cc2)c1 [Linifanib] + O=C(CCCCCCC(=O)Nc1ccccc1)NO [Vorinostat] (partner 1 µM)
# How it was run: as §1
# [5] = compound: Cc1ccc(F)c(NC(=O)Nc2ccc(-c3cccc4[nH]nc(N)c34)cc2)c1 [Linifanib] + COc1cc2c(Oc3ccc(NC(=O)C4(C(=O)Nc5ccc(F)cc5)CC4)cc3F)ccnc2cc1OCCCN1CCOCC1 [Foretinib] (partner 0.25 µM)
# How it was run: as §1
# [6] = compound: Cc1ccc(F)c(NC(=O)Nc2ccc(-c3cccc4[nH]nc(N)c34)cc2)c1 [Linifanib] + N=C(N)NC(=N)NCCc1ccccc1 [Phenformin] (partner 250 µM)
# How it was run: as §1
# [7] = compound: Cc1ccc(F)c(NC(=O)Nc2ccc(-c3cccc4[nH]nc(N)c34)cc2)c1 [Linifanib] + Cc1cc(Nc2cc(N3CCN(C)CC3)nc(Sc3ccc(NC(=O)C4CC4)cc3)n2)n[nH]1 [Tozasertib] (partner 0.1 µM)
# How it was run: as §1
# [8] = compound: Cc1ccc(F)c(NC(=O)Nc2ccc(-c3cccc4[nH]nc(N)c34)cc2)c1 [Linifanib] + Nc1nc2[nH]cc(CCc3ccc(C(=O)N[C@@H](CCC(=O)O)C(=O)O)cc3)c2c(=O)[nH]1 [Pemetrexed] (partner 0.2 µM)
# How it was run: as §1
# [9] = compound: Cc1ccc(F)c(NC(=O)Nc2ccc(-c3cccc4[nH]nc(N)c34)cc2)c1 [Linifanib] + COc1cccc2cc(-c3nc([C@H]4CC[C@H](C(=O)O)CC4)n4ncnc(N)c34)[nH]c12 [OSI-027] (partner 0.5 µM)
# How it was run: as §1
# [10] = compound: Cc1ccc(F)c(NC(=O)Nc2ccc(-c3cccc4[nH]nc(N)c34)cc2)c1 [Linifanib] + Nc1ncn([C@H]2C[C@H](O)[C@@H](CO)O2)c(=O)n1 [Decitabine] (partner 2 µM)
# How it was run: as §1
# [11] = compound: Cc1ccc(F)c(NC(=O)Nc2ccc(-c3cccc4[nH]nc(N)c34)cc2)c1 [Linifanib] + CC(=O)Nc1cccc(-n2c(=O)n(C3CC3)c(=O)c3c(Nc4ccc(I)cc4F)n(C)c(=O)c(C)c32)c1 [Trametinib] (partner 0.02 µM)
# How it was run: as §1
# [12] = compound: Cc1ccc(F)c(NC(=O)Nc2ccc(-c3cccc4[nH]nc(N)c34)cc2)c1 [Linifanib] + CCNC(=O)c1noc(-c2cc(C(C)C)c(O)cc2O)c1-c1ccc(CN2CCOCC2)cc1 [Luminespib] (partner 0.01 µM)
# How it was run: as §1
# [13] = compound: Cc1ccc(F)c(NC(=O)Nc2ccc(-c3cccc4[nH]nc(N)c34)cc2)c1 [Linifanib] + CC(=O)c1c(C)c2cnc(Nc3ccc(N4CCNCC4)cn3)nc2n(C2CCCC2)c1=O [Palbociclib] (partner 0.5 µM)
# How it was run: as §1
# [14] = compound: Cc1ccc(F)c(NC(=O)Nc2ccc(-c3cccc4[nH]nc(N)c34)cc2)c1 [Linifanib]
# How it was run: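 Lung cancer cell lines in 1536-well plates were exposed by pinning to five library-drug doses (not always all listed) √10 apart, following an overnight hold at 37 °C. MetaXpress counted Hoechst-stained nuclei from 4× images taken after 5 days without medium change. Viability is the median ratio of treated-well to vehicle-well nuclei across plates. Plates required control CV below 25% and at least one doubling.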
cell line,measurement,setting,value
NCI-H2342,relative viability,[1]; first compound 0.03162 µM,0.512
same,relative viability,[1]; first compound 0.1 µM,0.481
same,relative viability,[1]; first compound 0.3162 µM,0.381
same,relative viability,[2]; first compound 0.03162 µM,0.506
same,relative viability,[2]; first compound 0.1 µM,0.506
same,relative viability,[2]; first compound 0.3162 µM,0.625
same,relative viability,[3]; first compound 0.03162 µM,0.333
same,relative viability,[3]; first compound 0.1 µM,0.331
same,relative viability,[3]; first compound 0.3162 µM,0.332
same,relative viability,[4]; first compound 0.03162 µM,0.825
same,relative viability,[4]; first compound 0.1 µM,0.771
same,relative viability,[4]; first compound 0.3162 µM,0.734
same,relative viability,[5]; first compound 0.03162 µM,1.18
same,relative viability,[5]; first compound 0.1 µM,1.2
same,relative viability,[5]; first compound 0.3162 µM,1.15
same,relative viability,[6]; first compound 0.03162 µM,0.679
same,relative viability,[6]; first compound 0.1 µM,0.624
same,relative viability,[6]; first compound 0.3162 µM,0.667
same,relative viability,[7]; first compound 0.03162 µM,0.544
same,relative viability,[7]; first compound 0.1 µM,0.492
same,relative viability,[7]; first compound 0.3162 µM,0.529
same,relative viability,[8]; first compound 0.03162 µM,0.791
same,relative viability,[8]; first compound 0.1 µM,0.832
same,relative viability,[8]; first compound 0.3162 µM,0.769
same,relative viability,[9]; first compound 0.03162 µM,0.638
same,relative viability,[9]; first compound 0.1 µM,0.654
same,relative viability,[9]; first compound 0.3162 µM,0.624
same,relative viability,[10]; first compound 0.03162 µM,0.732
same,relative viability,[10]; first compound 0.1 µM,0.713
same,relative viability,[10]; first compound 0.3162 µM,0.768
same,relative viability,[11]; first compound 0.03162 µM,0.848
same,relative viability,[11]; first compound 0.1 µM,0.744
same,relative viability,[11]; first compound 0.3162 µM,0.878
same,relative viability,[12]; first compound 0.03162 µM,0.736
same,relative viability,[12]; first compound 0.1 µM,0.766
same,relative viability,[12]; first compound 0.3162 µM,0.613
same,relative viability,[13]; first compound 0.03162 µM,0.594
same,relative viability,[13]; first compound 0.1 µM,0.562
same,relative viability,[13]; first compound 0.3162 µM,0.481
same,relative viability,[14]; 0.03162 µM,1.04
same,relative viability,[14]; 0.1 µM,0.977
same,relative viability,[14]; 0.3162 µM,0.882
